These results are taken from ChEMBL document CHEMBL5370661, “Development of Fluorescent AF64394 Analogues Enables Real-Time Binding Studies for the Orphan Class A GPCR GPR3” (J Med Chem, 2023).

Data set [1] concerns the target T1, G-protein coupled receptor 3 (Homo sapiens, UniProt P46089). The data set can be described thus: Binding affinity to N-terminal 3xHA/Nluc-tagged full-length wild-type human GPR3 expressed in HEK293A cells using vivazine as substrate by time-course saturation based NanoBRET assay. Format: cell-based. The conditions noted are these: HEK293-A, time 180.0 min, TDE = time-dependent effect. For orientation: In BRET a luciferase serves as donor, and the signal depends on an acceptor being close.

Data set [2] has as its target T1, G-protein coupled receptor 3. Description: Binding affinity to N-terminal 3xHA/Nluc-tagged full-length wild-type human GPR3 expressed in HEK293A cells using vivazine as substrate measured for 180 mins by time-course saturation based NanoBRET assay. The following applies: for Activity: HEK293-A. Format: cell-based.
Data set [3] shares this target. Description: Binding affinity to N-terminal 3xHA/Nluc-tagged full-length wild-type human GPR3 expressed in HEK293A cells using vivazine as substrate at <=30 uM measured for 180 mins by time-course saturation based NanoBRET assay. Format: cell-based. The conditions noted are these: HEK293-A.
For data set [4] the target is unchanged. The data set can be described thus: Binding affinity to N-terminal 3xHA/Nluc-tagged full-length wild-type human GPR3 expressed in HEK293A cells using vivazine as substrate at <10 uM measured for 180 mins by time-course saturation based NanoBRET assay. The following applies: HEK293-A. Format: cell-based.
The target is the same in data set [5]. The data set can be described thus: Total binding affinity to N-terminal 3xHA/Nluc-tagged full-length wild-type human GPR3 expressed in HEK293A cells using furimazine as substrate measured for 3 hrs by NanoBRET assay. Format: cell-based, HEK293-A.
Data set [6] is described as follows: Chemical stability of compound in DMSO assessed as compound degradation incubated for 104 days by RP-HPLC analysis. Format: physicochemical. The following applies: 2496 h; time 104 day.
The target in data set [7] is T1, G-protein coupled receptor 3. Description: Inverse agonist activity at N-terminal 3xHA/Nluc-tagged full-length wild-type human GPR3 expressed in HEK293A cells co-expressing Fluc-tagged CRE assessed as reduction in CRE gene expression at 10 uM incubated for 24 hrs by luciferase based assay. Format: functional, cell-based. The following applies: HEK293-A, filed as inverse agonist.

Data set [8] deals with G-protein coupled receptor 3 (Homo sapiens), P46089 [V186W,V187W,Y188W]. Description: Binding affinity to Nluc-tagged GPR3 V186W/V187W/Y188W mutant (unknown origin) expressed in HEK293A cells assessed as decrease in cAMP level by biosensor based FRET assay. Format: cell-based. The following applies: HEK293-A. (In general: Cyclic AMP is a second messenger, typically raised through Gs and lowered through Gi signalling.)
G-protein coupled receptor 3 (Homo sapiens), P46089 [V186W,V187W,Y188W], sequence (P46089 whole entry V186W/V187W/Y188W): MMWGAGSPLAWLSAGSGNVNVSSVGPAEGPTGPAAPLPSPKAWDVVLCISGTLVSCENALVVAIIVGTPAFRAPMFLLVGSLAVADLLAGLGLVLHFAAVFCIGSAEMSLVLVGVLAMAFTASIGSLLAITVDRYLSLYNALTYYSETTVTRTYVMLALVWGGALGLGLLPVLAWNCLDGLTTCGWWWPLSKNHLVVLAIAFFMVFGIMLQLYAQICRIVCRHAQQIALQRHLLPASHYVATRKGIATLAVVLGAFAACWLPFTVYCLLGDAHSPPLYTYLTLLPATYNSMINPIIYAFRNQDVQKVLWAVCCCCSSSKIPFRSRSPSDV

The target in data set [9] is T1, G-protein coupled receptor 3. The data set can be described thus: Binding affinity to N-terminal 3xHA/Nluc-tagged full-length wild-type human GPR3 expressed in HEK293A cells using vivazine as substrate at 20 to 30 uM measured for 180 mins by time-course saturation based NanoBRET assay. Format: cell-based. The conditions noted are these: HEK293-A, dose 20-30 µM.
Data set [10] has the same target. Description: Specific binding affinity to N-terminal 3xHA/Nluc-tagged full-length wild-type human GPR3 expressed in HEK293A cells using furimazine as substrate measured for 3 hrs by NanoBRET assay. Format: cell-based, HEK293-A.
The nature of data set [11]: Specific binding affinity to N-terminal 3xHA/Nluc-tagged full-length wild-type human GPR12 expressed in HEK293A cells using furimazine as substrate measured for 3 hrs by NanoBRET assay. Format: cell-based. The following applies: hek293-a.
For data set [12], the target named is T2, G-protein coupled receptor 6 (Homo sapiens, UniProt P46095). The data set can be described thus: Specific binding affinity to full-length wild-type human brain GPR6 expressed in HEK293A cells using furimazine as substrate measured for 3 hrs by NanoBRET assay. Format: cell-based, HEK293-A.
T2 sequence (P46095 whole entry): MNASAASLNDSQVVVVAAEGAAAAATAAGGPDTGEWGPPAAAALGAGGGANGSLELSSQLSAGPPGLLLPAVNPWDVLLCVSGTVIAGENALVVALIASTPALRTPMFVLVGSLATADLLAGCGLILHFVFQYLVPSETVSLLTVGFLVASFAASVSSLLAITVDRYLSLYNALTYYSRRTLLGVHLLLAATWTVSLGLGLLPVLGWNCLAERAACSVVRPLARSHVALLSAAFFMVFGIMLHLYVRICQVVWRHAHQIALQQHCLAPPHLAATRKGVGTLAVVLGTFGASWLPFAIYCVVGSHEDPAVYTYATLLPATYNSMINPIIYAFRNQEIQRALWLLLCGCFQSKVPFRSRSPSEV
Data set [13] deals with T1, G-protein coupled receptor 3. The data set can be described thus: Competitive total binding affinity to N-terminal 3xHA/Nluc-tagged full-length wild-type human GPR3 expressed in HEK293A cells using furimazine as substrate at 1 uM measured for 3 hrs in presence of AF64394 by NanoBRET assay. Format: cell-based, HEK293-A.
Data set [14] concerns the target T2, G-protein coupled receptor 6. Description: Competitive total binding affinity to full-length wild-type human brain GPR6 expressed in HEK293A cells using furimazine as substrate at 1 uM measured for 3 hrs in presence of CVN424 by NanoBRET assay. Format: cell-based, HEK293-A.
For data set [15], the target named is T1, G-protein coupled receptor 3. Description: Modulation of N-terminal 3xHA/Nluc-tagged full-length wild-type human GPR3 expressed in HEK293A cells using furimazine as substrate at 1 uM measured for 3 hrs in presence of DPI by NanoBRET assay. Format: cell-based, HEK293-A.
The target is the same in data set [16]. Description: Binding affinity to N-terminal 3xHA/Nluc-tagged full-length wild-type human GPR3 expressed in HEK293A cells using vivazine as substrate assessed as increase in BRET ratio by time-course saturation based NanoBRET assay. Format: cell-based. The following applies: HEK293-A, filed as modulator.
Data set [17] deals with HEK293-A. The data set can be described thus: Downregulation of CRE gene activity in HEK293-A cells expressing GPR6 incubated for 24 hrs by luciferase based assay. The following applies: Homo sapiens. Format: functional, cell-based.
Data set [18] concerns HEK293-A. The data set can be described thus: Downregulation of CRE gene activity in HEK293-A cells expressing GPR12 incubated for 24 hrs by luciferase based assay. Format: functional, cell-based. The conditions noted are these: Homo sapiens.
The subject of data set [19] is G-protein coupled receptor 3 (Homo sapiens), P46089 [Y188W]. Description: Binding affinity to Nluc-tagged GPR3 Y188W mutant (unknown origin) expressed in HEK293A cells assessed as decrease in cAMP level by biosensor based FRET assay. Format: cell-based. The following applies: HEK293-A, filed as modulator.
For data set [20], the system named is G-protein coupled receptor 3 (Homo sapiens), P46089 [V187W,Y188W]. Description: Binding affinity to Nluc-tagged GPR3 V187W/Y188W mutant (unknown origin) expressed in HEK293A cells assessed as decrease in cAMP level by biosensor based FRET assay. Format: cell-based. The following applies: HEK293-A, filed as modulator.
G-protein coupled receptor 3 (Homo sapiens), P46089 [V187W,Y188W], sequence (P46089 whole entry V187W/Y188W): as the sequence (P46089 whole entry V186W/V187W/Y188W) above, with W186V counted along it
Data set [21] concerns HEK293-A. The data set can be described thus: Binding affinity to Nluc-tagged GPR3 T279A/Y280A mutant (unknown origin) expressed in HEK293A cells assessed as decrease in cAMP level by biosensor based FRET assay. Format: cell-based. The following applies: Homo sapiens, filed as modulator.
In data set [22] the target is T1, G-protein coupled receptor 3. Description: Binding affinity to N-terminal 3xHA/Nluc-tagged full-length wild-type human GPR3 expressed in HEK293A cells assessed as increase in BRET ratio incubated for 180 mins by NanoBRET assay. Format: cell-based. The following applies: HEK293-A.
Data set [23] in a line: Chemical stability of compound in aqueous solution assessed as compound degradation incubated for 104 days by RP-HPLC analysis. Format: physicochemical. The conditions noted are these: buffer, 2496 h; time 104 day.

Each structure is given as a SMILES string. Active and inactive are the calls of the source. The calls are words filed in the database; no cut-off is given here.

T1 sequence (P46089 whole entry): as the sequence (P46089 whole entry V186W/V187W/Y188W) above, with W186V, W187V, W188Y counted along it
G-protein coupled receptor 3 (Homo sapiens), P46089 [Y188W], sequence (P46089 whole entry Y188W): as the sequence (P46089 whole entry V186W/V187W/Y188W) above, with W186V, W187V counted along it

For orientation: EC50 means the concentration giving half of the maximal effect. Take `CC(C)Oc1cc(Cl)ccc1CNc1cc(-c2cccc(OCCOCCOCCOCCNC(=O)c3ccc(-c4c5ccc(N(C)C)cc5[o+]c5cc(N(C)C)ccc45)c(C(=O)[O-])c3)c2)nc2ncnn12`: the figures for the Activity entry in data set [1] and in data set [2] were “Tde” and “Dose-Dependent Effect”, respectively. Moreover, in data set [3], the result was Active. Further, in data set [4], the result was inactive. In data set [5], this compound had an EC50 of over 10 µM.
In the case of `COCC[N+]1=C(/C=C/C=C2/N(CCCCCC(=O)NCCOCCOCCOCCOCCOCCOc3ccccc3-c3cc(NCc4ccc(Cl)cc4OC(C)C)n4ncnc4n3)c3ccc(S(=O)(=O)O)cc3C2(C)CCCS(=O)(=O)O)C(C)(CCCS(=O)(=O)O)c2cc(S(=O)(=O)[O-])ccc21` (configuration not stated), the result in [2] was inactive. In [5], the EC50 is over 31.6 µM.
Regarding `CC(C)Oc1cc(Cl)ccc1CNc1cc(-c2cccc(OCCCCCCNC(=O)c3ccc(-c4c5ccc(N(C)C)cc5[o+]c5cc(N(C)C)ccc45)c(C(=O)[O-])c3)c2)nc2ncnn12`, in data set [6], the Stability entry is given as “Stable”. Besides, the Activity entry was “Tde” in [1] and “Dose-Dependent Effect” in [2]. Moreover, in [3], the result was Active. The compound also had an EC50 in data set [5] of 4.47 µM.
As for `CC(C)Oc1cc(Cl)ccc1CNc1cc(-c2ccccc2OCCOCCOCCOCCNC(=O)CCCCCN2/C(=C/C=C/C3=[N+](CCOO)c4ccc(S(=O)(=O)O)cc4C3(C)CCCS(=O)(=O)[O-])C(C)(CCCS(=O)(=O)O)c3cc(S(=O)(=O)O)ccc32)nc2ncnn12` (configuration not stated), the outcome in [2] was inactive. In data set [5], this compound had an EC50 of over 31.6 µM.
As to `CC(C)Oc1cc(Cl)ccc1CNc1cc(-c2cc(F)ccc2Cl)nc2ncnn12`, the outcome in data set [7] was Active. Further, the result in data set [8] was inactive.
With `CC(C)Oc1cc(Cl)ccc1CNc1cc(-c2ccccc2OCCOCCOCCOCCOCCOCCNC(=O)c2ccc(-c3c4ccc(N(C)C)cc4[o+]c4cc(N(C)C)ccc34)c(C(=O)[O-])c2)nc2ncnn12`, the Activity entry in [1] was “Tde”; in data set [2], “Dose-Dependent Effect”. Besides, the result in [3] was Active. Moreover, in data set [9], the result was inactive. This compound had an EC50 in [5] of 4.47 µM.
What is called Kd is the free concentration of one partner at which half of the binding sites on the other are occupied at equilibrium, for simple one-to-one binding. The low end stands for higher affinity, the high end for lower affinity. Usually pKd stands for the Kd on a negative log10 scale, so that one unit is a factor of ten. What is called IC50 is the midpoint of a concentration-inhibition curve. In general, Ki refers to the dissociation constant of the complex between target and ligand, obtained from inhibition or displacement. As to `CC(C)Oc1cc(Cl)ccc1CNc1cc(-c2ccccc2OCCCCCCNC(=O)c2ccc(-c3c4ccc(N(C)C)cc4[o+]c4cc(N(C)C)ccc34)c(C(=O)[O-])c2)nc2ncnn12`, the Kd in [10] was 0.302 µM; in data set [2], 0.102 µM; in data set [12], 0.0661 µM. For the same compound, the Activity entry is “Tde” in data set [1] (filed as modulator), “Dose-Dependent Effect” in data set [2] (filed as modulator) and “Dose-Dependent Effect” in [16]. Besides, the outcome in data set [3] (filed as modulator), in data set [7], in [17], in [18], in data set [8] (filed as modulator) and in [19] was Active. In addition, the result in data set [20] and in data set [21] was Active. In addition, the EC50 in data set [5] is 0.891 µM; in data set [15], 1.41 µM. The compound also gave a pKd in data set [11] of 7.12. The IC50 was 1.26 µM in [13] and 0.214 µM in data set [14]. For the same compound, the Ki was 0.295 µM in data set [13] and 0.0132 µM in data set [14].
Take `COCC[N+]1=C(/C=C/C=C2/N(CCCCCC(=O)NCCOCCOCCOCCOc3ccc(-c4cc(NCc5ccc(Cl)cc5OC(C)C)n5ncnc5n4)cc3)c3ccc(S(=O)(=O)O)cc3C2(C)CCCS(=O)(=O)O)C(C)(CCCS(=O)(=O)O)c2cc(S(=O)(=O)[O-])ccc21` (configuration not stated): the outcome in data set [2] was inactive. In data set [5], this compound had an EC50 of over 31.6 µM.
Consider `CC(C)Oc1cc(Cl)ccc1CNc1cc(-c2ccc(OCCOCCOCCOCCNC(=O)c3ccc(-c4c5ccc(N(C)C)cc5[o+]c5cc(N(C)C)ccc45)c(C(=O)[O-])c3)cc2)nc2ncnn12`, for which the figures for the Activity result in data set [1] and in data set [2] were “Tde” and “Dose-Dependent Effect”, respectively. For the same compound, in data set [3], the result was Active. The outcome in data set [4] was inactive. Also, the EC50 in data set [5] was over 10 µM.
For the compound `CC(C)Oc1cc(Cl)ccc1CNc1cc(-c2ccc(OCCCCCCNC(=O)c3ccc(-c4c5ccc(N(C)C)cc5[o+]c5cc(N(C)C)ccc45)c(C(=O)[O-])c3)cc2)nc2ncnn12`, the values for the Activity result in [1] and in data set [2] were “Tde” and “Dose-Dependent Effect”, respectively. Also, the outcome in data set [3] was Active. Besides, a half-maximal effect in [5] (EC50) was put at 11.2 µM.
Consider `CN(C)c1ccc2c(-c3ccc(C(=O)NCCCC(=O)Nc4ccc(CCN5CN(c6ccccc6)C6(CCN(CCCC(=O)c7ccc(F)cc7)CC6)C5=O)cc4)cc3C(=O)[O-])c3ccc(N(C)C)cc3[o+]c2c1`, for which the result in data set [22] was inactive.
For `COCC[N+]1=C(/C=C/C=C2/N(CCCCCC(=O)NCCOCCOCCOCCOc3cccc(-c4cc(NCc5ccc(Cl)cc5OC(C)C)n5ncnc5n4)c3)c3ccc(S(=O)(=O)O)cc3C2(C)CCCS(=O)(=O)O)C(C)(CCCS(=O)(=O)O)c2cc(S(=O)(=O)[O-])ccc21` (configuration not stated), the outcome in [2] was inactive. For the same compound, in data set [5], the EC50 is over 31.6 µM.
As to `CC(C)Oc1cc(Cl)ccc1CNc1cc(-c2ccccc2OCCOCCOCCOCCNC(=O)c2ccc(-c3c4ccc(N(C)C)cc4[o+]c4cc(N(C)C)ccc34)c(C(=O)[O-])c2)nc2ncnn12`, the Stability result in [23] is “Stable”. Besides, the values for the Activity result in data set [1] and in [2] were “Tde” and “Dose-Dependent Effect”, respectively. Besides, in [3], the result was Active. Also, in [9], the outcome was inactive. In data set [5], it took 3.39 µM to reach a half-maximal effect (EC50).
